Drawing on ChEMBL document CHEMBL1770083, “2-(4-Carbonylphenyl)benzoxazole inhibitors of CETP: attenuation of hERG binding and improved HDLc-raising efficacy” (Bioorg Med Chem Lett, 2011), this text covers IC50, Activity and logD for 26 compounds.

The target of data set [1] is T1, Cholesteryl ester transfer protein (Homo sapiens, UniProt P11597).
T1 sequence (P11597 whole entry): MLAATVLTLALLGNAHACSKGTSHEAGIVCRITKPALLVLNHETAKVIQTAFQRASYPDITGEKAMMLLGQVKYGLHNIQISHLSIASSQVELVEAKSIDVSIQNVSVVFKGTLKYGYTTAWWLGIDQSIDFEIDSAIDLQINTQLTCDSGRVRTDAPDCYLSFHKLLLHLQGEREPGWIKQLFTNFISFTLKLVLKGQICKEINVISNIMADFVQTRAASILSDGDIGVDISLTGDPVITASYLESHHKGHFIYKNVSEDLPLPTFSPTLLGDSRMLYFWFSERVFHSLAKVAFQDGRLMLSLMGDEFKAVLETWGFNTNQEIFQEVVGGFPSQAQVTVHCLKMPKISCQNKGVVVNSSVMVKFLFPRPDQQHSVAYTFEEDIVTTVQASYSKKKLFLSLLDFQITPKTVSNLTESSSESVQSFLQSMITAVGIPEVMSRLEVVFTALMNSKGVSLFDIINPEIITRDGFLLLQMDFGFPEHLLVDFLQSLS
Kind of data set: Inhibition of CETP.

The target of data set [2] is Voltage-gated inwardly rectifying potassium channel KCNH2 (Homo sapiens, UniProt Q12809). Kind of data set: Displacement of [35S]MK499 from human ERG expressed in HEK cells. The data set is classed as cell-based, HEK293.
Chain of Voltage-gated inwardly rectifying potassium channel KCNH2 (Q12809 whole entry): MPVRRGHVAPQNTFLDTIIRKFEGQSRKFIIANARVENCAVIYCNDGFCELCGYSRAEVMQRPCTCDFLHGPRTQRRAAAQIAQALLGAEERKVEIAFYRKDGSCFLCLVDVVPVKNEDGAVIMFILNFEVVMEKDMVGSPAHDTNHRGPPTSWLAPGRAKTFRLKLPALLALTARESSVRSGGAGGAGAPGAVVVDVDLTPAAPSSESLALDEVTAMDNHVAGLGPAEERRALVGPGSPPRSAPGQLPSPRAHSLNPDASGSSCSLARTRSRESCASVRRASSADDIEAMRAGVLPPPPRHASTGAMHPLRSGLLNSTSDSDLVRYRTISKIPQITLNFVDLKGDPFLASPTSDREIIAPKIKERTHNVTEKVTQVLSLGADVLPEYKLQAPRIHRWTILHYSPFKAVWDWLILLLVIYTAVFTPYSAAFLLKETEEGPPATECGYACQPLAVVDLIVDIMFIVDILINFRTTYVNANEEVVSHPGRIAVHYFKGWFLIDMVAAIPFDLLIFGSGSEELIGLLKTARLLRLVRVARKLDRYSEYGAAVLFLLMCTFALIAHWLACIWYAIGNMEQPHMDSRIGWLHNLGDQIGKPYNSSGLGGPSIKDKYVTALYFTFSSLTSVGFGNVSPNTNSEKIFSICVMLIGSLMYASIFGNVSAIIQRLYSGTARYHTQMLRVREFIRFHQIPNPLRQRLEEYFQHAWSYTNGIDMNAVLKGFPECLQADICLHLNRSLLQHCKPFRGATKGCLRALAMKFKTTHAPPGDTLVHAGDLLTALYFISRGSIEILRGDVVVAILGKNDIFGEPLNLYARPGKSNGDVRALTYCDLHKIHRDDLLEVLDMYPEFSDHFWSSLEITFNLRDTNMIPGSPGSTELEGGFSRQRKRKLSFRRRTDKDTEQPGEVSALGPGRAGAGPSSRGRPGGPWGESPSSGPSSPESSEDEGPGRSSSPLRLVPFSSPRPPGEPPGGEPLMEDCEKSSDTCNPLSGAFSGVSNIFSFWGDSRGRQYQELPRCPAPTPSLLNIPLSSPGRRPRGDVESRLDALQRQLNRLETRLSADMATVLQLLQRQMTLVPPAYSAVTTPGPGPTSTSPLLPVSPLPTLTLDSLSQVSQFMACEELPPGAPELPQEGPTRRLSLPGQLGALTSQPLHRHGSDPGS
The next data set has as its system Mus musculus. Kind of data set: Increase of HDL cholesterol level in transgenic mouse model at 10 mg/kg. The data set is classed as functional.
Data set [3] can be described thus: Lipophilicity, log D of the compound at pH 7.3 by HPLC. The data set is classed as physicochemical. The settings on record: buffer.

What is called IC50 is the concentration needed to halve the response being measured. Lower therefore signals higher potency. Regarding `CC(C)Oc1ccc(F)cc1-c1ccc(N2C[C@@H](CNC(=O)c3ccc(-c4nc5cc(C#N)cc(C(C)C)c5o4)cc3)OC2=O)nc1`, the IC50 is 66 nM in data set [1] and above 30000 nM in data set [2]. This compound also displayed an Activity in the data set with Mus musculus of 24 mg/dL.

For the compound `CC(C)c1cc(C#N)cc2nc(-c3ccc(C(=O)NC[C@H]4CC[C@@H](c5cc(C(F)(F)F)cc(C(F)(F)F)c5)CC4)cc3)oc12`, the results for the IC50 in data set [1] and in data set [2] were 1040 nM and above 30000 nM, respectively.

By logD is commonly meant the decadic logarithm of the distribution of all forms, ionised or not, between an organic phase and buffer at a given pH. A higher logD goes with a more lipophilic compound. As for `CC(C)c1cc(C#N)cc2nc(-c3ccc(C(=O)NCC4CN(c5ccc(-c6ccccc6OC(F)(F)F)cn5)C(=O)O4)cc3)oc12` (racemic), the half-maximal inhibitory concentration (IC50) in data set [1] is 67 nM; in data set [2] it was above 30000 nM. In data set [3], this compound showed a pH-dependent lipophilicity (logD) of 6.4.

In turn, `Cc1ccc(OC(C)C)c(-c2ccc(N3CC(CNC(=O)c4ccc(-c5nc6cc(C#N)cc(C(C)C)c6o5)cc4)OC3=O)nc2)c1` (racemic) had an IC50 in data set [1] of 171 nM. The compound also gave a pH-dependent lipophilicity (logD) in data set [3] of 6.9.

As for `CC(C)Oc1ccc(F)cc1-c1ccc(N2CC(CNC(=O)c3ccc(-c4nc5cc(C#N)cc(C(C)C)c5o4)cc3)OC2=O)nc1` (racemic), the IC50 in data set [1] is 124 nM; in data set [2], above 30000 nM. Moreover, the log distribution coefficient (logD) in data set [3] was 6.6.

`CC(C)c1cc(C#N)cc2nc(-c3ccc(C(=O)NC[C@H]4CC[C@@H](c5ccc(C(C)(C)C)cc5)CC4)cc3)oc12`: the IC50 in data set [1] is 37 nM; in data set [2] it was above 30000 nM. Also, the Activity in the data set with Mus musculus was determined as 17 mg/dL.

`CC(C)c1cc(C#N)cc2nc(-c3ccc(C(=O)NC[C@H]4CC[C@H](c5cccc(C(F)(F)F)c5)CC4)cc3)oc12` gave an IC50 in data set [1] of 100 nM.

For `Cc1ccc(-c2ccc(N3CC(CNC(=O)c4ccc(-c5nc6cc(C#N)cc(C(C)C)c6o5)cc4)OC3=O)nc2)s1` (racemic), the IC50 turned out to be 955 nM in data set [1] and 12700 nM in data set [2]. For the same compound, in data set [3], the logD is 6.2.

Turning to `CC(C)c1cc(C#N)cc2nc(-c3ccc(C(=O)NC[C@H]4CC[C@H](c5ccc(Cl)cc5)CC4)cc3)oc12`, the IC50 in data set [1] is 77 nM; in data set [2], above 30000 nM.

In turn, `CC(C)c1cc(C#N)cc2nc(-c3ccc(C(=O)NCC4CN(c5ccc(-c6ccccc6C(N)=O)cn5)C(=O)O4)cc3)oc12` (racemic) returned an IC50 in data set [2] above 30000 nM. In addition, the logD in data set [3] was found to be 4.8.

Regarding `Cc1cccc([C@H]2CC[C@@H](CNC(=O)c3ccc(-c4nc5cc(C#N)cc(C(C)C)c5o4)cc3)CC2)c1`, the IC50 in data set [1] is 145 nM.

Compound `CC(C)c1cc(C#N)cc2nc(-c3ccc(C(=O)NCC4CN(c5ccc(Cl)cn5)C(=O)O4)cc3)oc12` (racemic) displayed an IC50 in data set [1] of 19200 nM. This compound yielded a pH-dependent lipophilicity (logD) in data set [3] of 5.8.

For the compound `CC(C)c1cc(C#N)cc2nc(-c3ccc(C(=O)NC[C@@]4(C)CN(c5ccc(-c6ccccc6OC(F)(F)F)cn5)C(=O)O4)cc3)oc12`, the half-inhibitory concentration (IC50) in data set [1] was 18 nM; in data set [2], above 30000 nM. In the data set on Mus musculus, this compound displayed an Activity of 27 mg/dL.

Take `CC(C)c1cc(C#N)cc2nc(-c3ccc(C(=O)NC[C@@H]4CN(c5ccc(-c6ccccc6OC(F)(F)F)cn5)C(=O)O4)cc3)oc12`: the IC50 in data set [1] is 46 nM; in data set [2] it was above 30000 nM. The compound also yielded an Activity in the data set on Mus musculus of 19 mg/dL.

In the case of `CC(C)c1cc(C#N)cc2nc(-c3ccc(C(=O)NC[C@H]4CN(c5ccc(-c6ccccc6OC(F)(F)F)cn5)C(=O)O4)cc3)oc12`, the IC50 came out at 140 nM in data set [1] and 3580 nM in data set [2].

In data set [1], `CC(C)c1cc(C#N)cc2nc(-c3ccc(C(=O)NC[C@H]4CC[C@@H](c5cccc(C(F)(F)F)c5)CC4)cc3)oc12` yielded an IC50 of 78 nM.

`Cc1cccc([C@H]2CC[C@H](CNC(=O)c3ccc(-c4nc5cc(C#N)cc(C(C)C)c5o4)cc3)CC2)c1` came in with a concentration for half-maximal inhibition (IC50) in data set [1] of 133 nM. This IC50 lies about 1.7-fold higher than the previous one.

As to `CC(C)c1cc(C#N)cc2nc(-c3ccc(C(=O)NCC4CN(c5ccc(-c6ccccc6C#N)cn5)C(=O)O4)cc3)oc12` (racemic), the IC50 in data set [1] was 829 nM; in data set [2], 1190 nM. In data set [3], the logD amounted to 5.1.

`CC(C)c1cc(C#N)cc2nc(-c3ccc(C(=O)NC[C@H]4CC[C@@H](c5ccc(C(F)(F)F)cc5)CC4)cc3)oc12`: the IC50 in data set [1] is 134 nM; in data set [2] it was above 30000 nM.

`CC(C)c1cc(C#N)cc2nc(-c3ccc(C(=O)NC[C@H]4CC[C@H](c5ccc(C(C)(C)C)cc5)CC4)cc3)oc12`: the IC50 in data set [1] is 38 nM; in data set [2], above 30000 nM. The compound further registered an Activity in the data set with Mus musculus of 18 mg/dL.

As for `CC(C)Oc1ccc(F)cc1-c1ccc(N2C[C@H](CNC(=O)c3ccc(-c4nc5cc(C#N)cc(C(C)C)c5o4)cc3)OC2=O)nc1`, the concentration for half-maximal inhibition (IC50) in data set [1] is 154 nM; in data set [2], above 30000 nM.

For the compound `C=C(C)c1ccc(N2CC(CNC(=O)c3ccc(-c4nc5cc(C#N)cc(C(C)C)c5o4)cc3)OC2=O)nc1` (racemic), the IC50 in data set [1] is 2340 nM; in data set [2] it was above 30000 nM. The logD in data set [3] was found to be 5.4.

In turn, `CC(C)Oc1ccc(F)cc1-c1ccc(N2CCC(CNC(=O)c3ccc(-c4nc5cc(C#N)cc(C(C)C)c5o4)cc3)CC2)nc1` displayed a pH-dependent lipophilicity (logD) in data set [3] of 7.2. In the data set with Mus musculus, this compound registered an Activity of 24 mg/dL.

Turning to `CC(C)c1cc(C#N)cc2nc(-c3ccc(C(=O)NC[C@H]4CC[C@H](c5ccc(C(F)(F)F)cc5)CC4)cc3)oc12`, the IC50 in data set [1] is 40 nM; in data set [2], above 30000 nM.

In the case of `CC(C)c1cc(C#N)cc2nc(-c3ccc(C(=O)NC[C@]4(C)CN(c5ccc(-c6ccccc6OC(F)(F)F)cn5)C(=O)O4)cc3)oc12`, the half-maximal inhibitory concentration (IC50) in data set [1] was 22 nM; in data set [2], above 30000 nM. The compound also registered an Activity in the data set on Mus musculus of 33 mg/dL.

In the case of `CC(C)c1cc(C#N)cc2nc(-c3ccc(C(=O)NC[C@H]4CC[C@H](c5cc(C(F)(F)F)cc(C(F)(F)F)c5)CC4)cc3)oc12`, the 50% inhibitory concentration (IC50) in data set [1] was 84 nM; in data set [2], above 30000 nM.
